How the values were obtained:
[1] = system: rats with middle cerebral artery occlusion (MCAO); assay: Acute cerebral infarction model in rats with middle cerebral artery occlusion (MCAO); assay type: in vivo, male SD rats; settings: MCAO, after 3 days, FIGS. 11-13
Description: After obtaining the active molecules that can promote the expression of VEGF-A mRNA in the animal model of inflammatory angiogenesis, a rat model of cerebral infarction was used for further verification. Following the method as described in Longa, E. Z., Longa, E. Z., Weinstein, P. R., Carlson, S. & Commin, R. Reversible middle cerebral artery occlusion without craniectomy in rats. [J]. Stroke, 1989. 1: 84-91, an acute cerebral infarction model was established in rats with middle cerebral artery occlusion (MCAO); and following the method as described in C. dela Torre, T. Fortin, G. A. S. Park, K. S. Butler, P. Kozlowski, B. A. Pappas, H. de Socarraz, J. K. Saunders and M. T. Richard. [J]. Brain Research, 1992. 582:186-195, a chronic cerebral ischemia model was established in rats with permanent ligation of bilateral common carotid arteries (2VO). The inhibition on cerebral infarction and neuroprotection for brain injury of the active molecules screened in Effect Example 2 were verified.
The control drugs were: Edaravone (purchased from Zhejiang Shengtong Biotechnology Co., Ltd.), Clopidogrel bisulfate (purchased from Wuhan Yuancheng Gongchuang Technology Co., Ltd.), and Salvianolate (purchased from Henan Provincial People's Hospital). Clopidogrel bisulfate is a platelet aggregation inhibitor, and Edaravone is a brain protectant (free radical scavenger). The MCAO model of rats was made by the thread occlusion method. The rats used in this effect example were male SD rats weighing 280-320 grams, purchased from Shanghai SLAC Laboratory Animal Co., Ltd. Five SD (Sprague Dawley) rats in each group were administered by intraperitoneal injection, 2 h before surgery, and every 24 h after modeling.
Three days later, the brain was taken, and the rat brain was stained with TTC (2,3,5-triphenyltetrazolium chloride, to detect the cell viability) and then photographed. Infarction rate (%)=(Non-infarction area of right brain section−non-infarction area of left brain section)/total area of brain section*100%. According to t tests, *P<0.05, **P<0.01, ***P<0.001 compared with the model group (MCAO). Infarction inhibition rate (%) at different doses=(infarction rate of model group-infarction rate of treatment group)/infarction rate of model group*100%. The infarction inhibition rate at different doses was plotted, and the ED50 of the drug was calculated.
Moreover, the body weight of the rats was recorded. The rate of body weight change was calculated according to a formula: Rate of body weight change (%)=(final weight-initial weight)/[…].
Three days after the acute cerebral infarction model was established in rats with MCAO, the test rats were scored for neurological function according to the Longa nerve scoring standard.
Three days after the acute cerebral infarction model of MCAO was established in rats, the intact brain tissue was taken out, olfactory bulb and the brain tissue that is 4 mm in front of the frontal pole was removed, and the immediately adjacent brain tissue of 2 mm thick was taken for water content measurement in the brain. The water content in brain tissue is calculated by the formula: (WW−DW)/WW×100%, where WW is the wet weight and DW is the dry weight. Three days after the acute cerebral infarction model of MCAO was established in rats, the brain tissue was stained with Evans Blue (EB, a commonly used azo dye preparation) to evaluate the permeability across the blood-brain barrier (BBB), so as to evaluate the integrity of blood-brain barrier. Both experiments were tested with the optimal dose of each drug previously determined: TG-028 (5 mg/Kg), Salvianolate (20 mg/Kg), Clopidogrel bisulfate (40 mg/Kg), Edaravone (40 mg/Kg).

[2] = system: HUVEC-12 endothelial cells; assay: Migration of HUVEC-12 endothelial cells (scratch test); assay type: cell-based, Human; settings: direct treatment of HUVEC-12, 24 h; compounds 10 μM, VEGF165 10 ng/mL; vs control medium
Experimental: (§1) The experiment included seven groups. In Group 1, HUVEC-12 endothelial cells (purchased from Shanghai RongChuang Biotech Co., Ltd.) were treated directly with simple DMEM medium (Gibcol, Shanghai) containing 10% FBS (SERANA, Germany) (control). In Group 2, the endothelial cells were treated with the supernatant obtained 24 h after macrophages were cultured with DMEM medium containing 10% FBS (s-control). In Group 3, the endothelial cells cultured with DMEM medium containing 10% FBS were treated directly with TG-028 (TG-028, 10 μM). In Group 4, the endothelial cells were treated with the supernatant obtained after macrophages cultured with DMEM medium containing 10% FBS were treated and co-incubated with TG-028 for 24 h (s-TG-028, […]). In Group 5, the endothelial cells cultured with DMEM medium containing 10% FBS were treated directly with Cpd-18 (Salvianolate) (cpd-18, 10 μM). In Group 6, the endothelial cells were treated with the supernatant obtained after macrophages cultured with DMEM medium containing 10% FBS were treated and co-incubated with Cpd-18 (Salvianolate, 10 μM) for 24 h (s-cpd18). In Group 7, the endothelial cells cultured with DMEM medium containing 10% FBS were treated directly with VEGFD (Recombinant Human VEGF165, 10 ng/mL).
Human umbilical vein endothelial cells HUVEC-12 in logarithmic growth phase were counted, adjusted to a cell density of 5×10^5 cells/mL, and inoculated in 1 mL per well in a 6-well plate. The cells were conventionally cultured in an incubator to form monolayer cells of 90% confluency. The 6-well plate fully plated with cells was scratched perpendicular to the cell surface with a 200 μL pipette tip from one end to the other end of the well. The scratches were made transversely with the pipette tip being as perpendicular as possible to the bottom of the plate. […]
The medium was aspirated and the cells scratched off were washed off with PBS. […] The migration of endothelial cells was detected according to the cell scratch method and the relative migration rate was calculated. […]

[3] = system: HUVEC-12 endothelial cells; assay: Tubule formation of HUVEC-12 endothelial cells (Matrigel); assay type: cell-based, Human; settings: direct treatment of HUVEC-12, 3 h; compounds 10 μM, VEGF165 10 ng/mL; vs control medium
Experimental: as §1
A 96-well plate and sterile yellow pipette tip were stored overnight in a refrigerator at −20° C. The packed Matrigel was thawed overnight in a refrigerator at 4° C. before the experiment. On the following day, the Matrigel thawed was centrifuged for a few minutes. 60 μL per well of the pre-cooled Matrigel was added to a 96-well plate in an ice bath on a ultra-clean bench, and then allowed to stand in an incubator for 1 h. After Matrigel was solidified, HUVEC-12 cells in logarithmic growth phase were taken and adjusted for the cell density. The cells were well mixed with each group of medium at a density of 5×10^4 cells/well and inoculated into a 96-well plate. […] The tube-like structure was analyzed by ImageJ image-analysis software, and the tube formation ability was evaluated using number of master junction as a quantitative index.

Substance: VEGF
- inhibitory effect on cerebral infarction (in words) [1]: can inhibit cerebral infarction in rats
- effect on migration of endothelial cells (in words) [2]: significant effect on the migration of endothelial cells
- effect on tube formation of endothelial cells (in words) [3]: significant effect on the tube formation of endothelial cells

From patent publication US11325937B2, “Glycoside compound and preparation method therefor, composition, application, and intermediate” (SHANGHAI HUTCHISON PHARMACEUTICALS LIMITED, priority 2018, dated 2022)
